Experimental data taken from patent US10507216B2, “Method for olfactory improvement with saccharide” (priority 2017, dated 2019).

What was measured:
[1] = system: rat olfactory neuroepithelial cells (ONCs); assay: Western blot analysis of rat ONCs (βIII tubulin, OMP, Golf, ADCY3 relative to GAPDH); format: cell-based; settings: day 9
Experimental: Olfactory neuroepithelia of rats were isolated from E17 embryos of wistar rats and 40 embryos per trial were used. After isolation, olfactory neuroepithelia were digested in Hanks' balanced salt solution (Roche Molecular Biochemicals, Indianapolis, Ind., USA) containing 0.125% Trypsin/EDTA for 30 minutes at 37° C. The cell suspension was then filtered through a 70 μm cell strainer to eliminate cell aggregates and debris, and adjusted to 24×10^4 cells/mL (equivalent to 5×10^4 cells/cm^2). Finally, a 2 mL cell suspension was added to six-wells coated with 0.85 μg/cm^2 poly-L-lysine (PLL). ONCs were cultured at 37° C. in a humidified 5% CO2 and 95% air atmosphere. Cell morphology was observed under an inverse phase contrast microscope (TS-100, Nikon, Tokyo, Japan) and scanning electron microscope (Hitachi S-4800).
ONC medium comprised DMEM/F12 (Invitrogen), 20 ng/mL bFGF, 20 ng/mL EGF, 2% B27 and 1% penicillin/streptomycin. To prepare the chitosan-containing medium for administration groups, chitosan (C-3646, Sigma, St. Louis, Mo.) was mixed with culture medium (0.1 mg/mL), and adjusted to pH 7.2 with NaOH. Particularly, chitosan solution was prepared by dissolving chitosan in 0.5 M acetic acid.
ONC lysates were obtained from individual culture wells using a RIPA lysis buffer containing protease inhibitor cocktail tablets (Roche Diagnostics GmbH). These samples were then denatured and separated by 12% SDS-PAGE gels, and blotted onto PVDF membranes (Millipore). After blocking in a CIS blocking buffer at room temperature for 60 seconds, the membranes were probed with various primary antibodies at 4° C. overnight. Membranes were incubated with horseradish peroxidase-conjugated secondary antibodies for 1.5 hours, and finally visualized using enhanced chemiluminescence (ECL; Millipore, Billerica, Mass.). After detachment of previous primary antibodies, the membranes were also probed with GAPDH antibodies, which served as an internal control. Images of western blotting were acquired by UVP BioSpectrum 810, and analyzed by Vision Works LS software (UVP, California, USA).
All the measurements were presented as mean±SD. Statistical significance was computed with one-way ANOVA followed by LSD test with p<0.05. All statistical analyses were conducted using Sigma plot v12.5.

[2] = system: human olfactory neuroepithelial cells (ONCs); assay: Western blot analysis of human ONCs (OMP, Golf, βIII tubulin); format: cell-based; settings: 0.1 mg/ml monosaccharide monomer, day 9
Experimental: Human olfactory neuroepithelia were harvested from adult olfactory neuroepithelium during endoscopic sinus surgery. Biopsy specimens were transferred into Hank's balanced salt solution (HBSS), minced finely, and then digested with 0.125% Trypsin/EDTA for 30 minutes at 37° C. After digestion, the pellet was collected by centrifuge and resuspended in the iscove's modified dulbecco's media (IMDM; Invitrogen, Calif., USA) with 10% fetal bovine serum and 1% penicillin/streptomycin Finally, they were seeded to six-wells coated with laminin-co-fibronectin for 21 days, incubated in a humidified atmosphere containing 5% CO2 and 95% air. After 21 days, the medium were changed with induction medium. This induction medium is Dulbecco's Modified Eagle Medium: Nutrient Mixture F-12 (DMEM/F12) (Invitrogen, Calif., USA) supplemented with 2% B-27 serum-free supplement. To prepare the chitosan-containing medium for administration groups, chitosan (C-3646, Sigma-Aldrich, St. Louis, Mo.) was mixed with induction medium (0.1 mg/ml), and adjusted to pH 7.2 with NaOH.
ONC lysates were obtained from individual culture wells using a RIPA lysis buffer containing protease inhibitor cocktail tablets (Roche Diagnostics GmbH). […] Images of western blotting were acquired by UVP BioSpectrum 810, and analyzed by Vision Works LS software (UVP, California, USA). […]

[3] = 0.1 mg/ml monosaccharide monomer

Compound: CC(=O)N[C@H]1C(O)O[C@H](CO)[C@H](O)[C@@H]1O (stereo partly shown) [GalNAc, N-acetylgalactosamine]
- expression levels of OMP and Golf [1, 3]: promoted the maturation of ORNs
- expression levels of OMP [2]: induced positive effects on human ONCs

Compound: N[C@H]1C(O)O[C@H](CO)[C@@H](O)[C@@H]1O (stereo partly shown) [GlcN, glucosamine]
- expression levels of OMP and Golf [1, 3]: promoted the maturation of ORNs

Compound: CC(=O)N[C@H]1C(O)O[C@H](CO)[C@@H](O)[C@@H]1O (stereo partly shown) [GlcNAc, N-acetylglucosamine]
- expression levels of OMP and Golf [1, 3]: promoted the maturation of ORNs

Compound: CC(=O)N[C@@H]1C(O)O[C@H](CO)[C@@H](O)[C@@H]1O (stereo partly drawn) [ManNAc, N-acetyl-D-mannosamine]
- expression levels of OMP and Golf [1, 3]: promoted the maturation of ORNs
- expression levels of OMP [2]: induced positive effects on human ONCs

Compound: heparan sulfate proteoglycan [HSPG]
- expression levels of OMP and Golf ([1]; 0.1 mg/ml proteoglycan or glycosaminoglycan): promoted expression of mature and functional ORNs
